SMILES strings stand for the structures.

By IC50 is commonly meant the point on the concentration scale where inhibition reaches its midpoint.

One assay relates to A549. As to the kind of experiment: MTT cytotoxic/antiproliferative activity, 72 h. Type of assay: cell-based, human. The settings on record: for IC50: A549, MTT, 72 h.
A further assay deals with NCI-H2228. As to the kind of experiment: MTT cytotoxic/antiproliferative activity, 72 h. The settings on record: for IC50: NCI-H2228, MTT, 72 h. It is filed as cell-based, human.
A further assay concerns U87-MG. As to the kind of experiment: MTT cytotoxic/antiproliferative activity, 72 h. It is filed as cell-based, human. As to conditions: for IC50: MTT, 72 h. Here is the method: (§1) A panel of six cancer cell lines was used to evaluate the cytotoxic potential of the investigated compounds.
(§2) Cytotoxicity in hepatocyte-like cells (HLC). STEMdiff Hepatocyte Kit was used to generate HLC from human pluripotent stem cells. Cytotoxicity of several of the tested compounds in HLC was evaluated using the sulphorhodamine B assay.

In another assay the test system is RD. As to the kind of experiment: MTT cytotoxic/antiproliferative activity, 72 h. It is filed as cell-based, human. The settings on record: for IC50: MTT, 72 h.
Another assay concerns MDA-MB-231. As to the kind of experiment: MTT cytotoxic/antiproliferative activity, 72 h. Type of assay: cell-based, human. As to conditions: for IC50: MDA-MB-231, MTT, 72 h.
The test system of the next assay is IMR-90. In words: MTT cytotoxicity in noncancerous cells, 72 h. The settings on record: IMR-90, MTT. Type of assay: cell-based, human. The method, then:
(§3) Growth inhibition activity in cancer cell lines was compared with the activity to inhibit the proliferation of normal (noncancerous) cells, namely MRC-5, IMR-90, hTERT-HPNE, and MCF10A cells. Selectivity indexes (SI) were calculated as (IC50 in noncancerous cells)/(average IC50 in cancer cells). […] We further assessed the toxicity of several of the compounds in hepatocyte-like cells (HLC) generated from human pluripotent cells.
as §2

Another assay relates to MCF10A. As to the kind of experiment: MTT cytotoxicity in noncancerous cells, 72 h. Type of assay: cell-based, human. The method, then:
as §3, §2

For another assay, the system named is MRC-5. In words: MTT cytotoxicity in noncancerous cells, 72 h. Type of assay: cell-based, human. As to conditions: MRC-5, MTT. Here is the method:
as §3, §2

In the next assay the test system is hTERT-HPNE. As to the kind of experiment: MTT cytotoxicity in noncancerous cells, 72 h. Type of assay: cell-based, human. The method, then:
as §3, §2

A further assay concerns CHOK1. In words: MTT cytotoxicity in NER-proficient cells, 72 h. Type of assay: cell-based, Chinese hamster.
Description: (§4) The cytotoxicity assay was also employed to determine whether DNA damage might be involved in the mechanism of action of the tested compounds. The Chinese hamster ovary MMC2 cell line harbors the ERCC3/XPB mutation, which renders it deficient in nucleotide excision repair (NER), whereas the parent line CHOK1 is proficient in this repair process. Thus, the MMC2 line is often more sensitive to agents causing DNA damage, especially NER-reparable DNA damage, than CHOK1. […] Phosphorylation of H2AX is a commonly used marker of DNA damage.
as §2

In the next assay the test system is MMC2. In words: MTT cytotoxicity in NER-deficient cells, 72 h. It is filed as cell-based, Chinese hamster. The settings on record: for IC50: MMC2 (NER deficient), MTT, 72 h; for Index F: IC50(CHOK1)/IC50(MMC2). The text has this:
The cytotoxicity assay was also employed to determine whether DNA damage might be involved in the mechanism of action of the tested compounds. The Chinese hamster ovary MMC2 cell line harbors the ERCC3/XPB mutation, which renders it deficient in nucleotide excision repair (NER), whereas the parent line CHOK1 is proficient in this repair process. Thus, the MMC2 line is often more sensitive to agents causing DNA damage, especially NER-reparable DNA damage, than CHOK1. […] Phosphorylation of H2AX is a commonly used marker of DNA damage. […]

In assay [1] the test system is panel of six cancer cell lines. As to the kind of experiment: MTT, panel of six cancer cell lines (average, ranges). It is filed as cell-based, human. As to conditions: average over six cancer cell lines; read-out: av cancer (average IC50 in cancer cells). The method, then:
as §1, §2

Assay [2] concerns normal (noncancerous) cells MRC-5, IMR-90, hTERT-HPNE, MCF10A. As to the kind of experiment: MTT, noncancerous cell lines (average, selectivity index). Type of assay: cell-based, human. As to conditions: for IC50: average over MRC-5, IMR-90, hTERT-HPNE, MCF10A, read-out: av norm (average IC50 in noncancerous cells); for SI, selectivity index: IC50(normal cells)/averageIC50(cancer cells). Here is the method:
Growth inhibition activity in cancer cell lines was compared with the activity to inhibit the proliferation of normal (noncancerous) cells, namely MRC-5, IMR-90, hTERT-HPNE, and MCF10A cells. Selectivity indexes (SI) were calculated as (IC50 in noncancerous cells)/(average IC50 in cancer cells). […] We further assessed the toxicity of several of the compounds in hepatocyte-like cells (HLC) generated from human pluripotent cells. […]

The test system of another assay is A549 spheroids. As to the kind of experiment: Cytotoxicity in 3D spheroids, CellTiter-Glo 3D. Type of assay: cell-based, human. As to conditions: A549 3D spheroids, 96 h. The method, then:
(§5) In the 3D structure, the gradients of gases, nutrients, and therapeutics play a role in the final cytotoxicity of a compound.
(§6) A549 and NCI-H2228 cells were seeded in ultralow attachment, U-shape plates (Corning) at a density of 800 cells/well in the tumorsphere medium consisting of DMEM/F12 medium (Sigma), fibroblast growth factor (20 ng/mL; Sigma), epidermal growth factor 2 (10 ng mL^–1; Sigma), B27 supplement (1×; Gibco), bovine serum albumin, bovine serum albumin (BSA) (1.5 mg mL^–1; Sigma). […] CellTiter-Glo 3D viability assay was used for the experiment evaluation following the manufacturer’s instructions. The bioluminescence signal, proportional to the number of living cells, was measured using the luminescence reader SPARK, and IC50 values were calculated.
(In general: Cellular ATP, detected with luciferase, serves as a proxy for viable cell number.)

In another assay the test system is NCI-H2228 spheroids. As to the kind of experiment: Cytotoxicity in 3D spheroids, CellTiter-Glo 3D. It is filed as cell-based, human. The settings on record: NCI-H2228 3D spheroids, 96 h. The method, then: as §5, §6
A further assay deals with NCI-H2228 cells. As to the kind of experiment: Phosphorylation of H2AX (γH2AX foci, confocal microscopy). Type of assay: cell-based, human. As to conditions: NCI-H2228, 3xIC50, 24 h.
Description: as §4
The nuclei were counter-stained with DAPI. The samples were mounted with ProLong Diamond antifade mountant, and the images were recorded on a Leica SP8 confocal microscope.

The test system of the next assay is CT26 cell line. As to the kind of experiment: MTT cytotoxic/antiproliferative activity, 72 h. It is filed as cell-based, murine.
A further assay concerns A549 cells. In words: Scratch test (cell migration). Type of assay: cell-based, human. The settings on record: A549, IC50 concentrations, 48 h. Here is the method:
First, we employed the scratch test. The ability to slow the cell closing the open area was observable for all tested compounds to a similar extent (Figure S38). Whereas the open area was almost completely closed after 48 h in nontreated cells, it remained almost fully clear of cells in the treated samples.
A549 cells were seeded in 24-well plates with inserts (Ibidi) at a density of 2 × 10^4 cells/chamber and incubated overnight. The inserts were then withdrawn, and fresh medium containing the investigated compounds was added. The image of the cell-free region was recorded at the time of compound addition and then after 48 h. The cell-free area was evaluated with Fiji software.

Another assay has as its system CT26 cells. In words: Externalization of calreticulin (flow cytometry). As to conditions: IC50 concentrations, 16 h. Type of assay: cell-based, murine. Here is the method:
Cells with compromised cell membranes (PI-positive) were excluded from the analysis.
CT26 cells were seeded in 6-well plates at a density of 2.5 × 10^5 cells/well and grown overnight. […] PI was added before the flow cytometry analysis with a BD FACS Verse flow cytometer. Then 3 × 10^4 cells were analyzed following the exclusion of cell aggregates. Data was analyzed with FSC Express 7 software (DeNovo software, Glendale, CA).
(In general: Flow cytometry measures light scatter and fluorescence of single cells or particles in a stream.)

With `CC(Oc1cc(-c2cnn(C3CCN(C(=O)[O][Pt]([Cl])([Cl])[O]C(=O)CCCc4ccccc4)CC3)c2)cnc1N)c1c(Cl)ccc(F)c1Cl.N.N` (stereo not shown) [compound 3, ctc-[Pt(NH3)2(crizotinib)(PhB)Cl2]], the IC50 in the assay on A549 turned out to be 0.48 ± 0.06 µM; with NCI-H2228, 0.45 ± 0.09 µM; with U87-MG, 0.44 ± 0.05 µM; with RD, 0.54 ± 0.07 µM; with MDA-MB-231, 0.5 ± 0.07 µM; with IMR-90, 2.3 ± 0.6 µM. In addition, the IC50 is 2.6 ± 0.4 µM in the assay with MCF10A; 1.5 ± 0.6 µM in the assay on MRC-5; 2.2 ± 0.4 µM in the assay on hTERT-HPNE; 0.63 ± 0.05 µM in the assay with CHOK1; 0.23 ± 0.08 µM in the assay with MMC2; 0.5 µM in assay [1]. For the same molecule, the IC50 in assay [2] was found to be 2.2 µM; in the assay on A549 spheroids, 0.98 ± 0.05 µM; with NCI-H2228 spheroids, 0.41 ± 0.07 µM; in the assay with CT26 cell line it was 0.8 ± 0.2 µM. Moreover, the “γH2AX foci (DNA damage marker)” value in the assay with NCI-H2228 cells is “detected γH2AX foci”. For the same molecule, in the assay with A549 cells, the “antimigratory effect (closing of open area)” value (“antimigratory effect” below) is “antimigratory potential comparable to that of crizotinib and ceritinib”. In addition, the externalization of calreticulin entry in the assay with CT26 cells is “externalization of calreticulin was apparent”.
As to `N.N.[Cl][Pt][Cl]` [cisPt, cisplatin, reference compound], the IC50 in the assay with A549 stood at 4.3 ± 0.2 µM; in the assay on NCI-H2228, 2.4 ± 0.7 µM; in the assay with U87-MG, 3 ± 0.2 µM; in the assay with RD, 7.3 ± 0.2 µM; in the assay on MDA-MB-231, 27 ± 4 µM; in the assay on IMR-90 it was 9.6 ± 0.8 µM. Further, the IC50 in the assay with MCF10A was determined as 8 ± 0.9 µM; in the assay with MRC-5, 10 ± 2 µM; with hTERT-HPNE, 12 ± 2 µM; in the assay on CHOK1, 24 ± 2 µM; in the assay with MMC2, 2.6 ± 0.6 µM; in assay [1], 8.8 µM. The IC50 in [2] was 9.9 µM; in the assay with A549 spheroids it was 19 ± 3 µM; with NCI-H2228 spheroids it was 2.1 ± 0.9 µM; with CT26 cell line, 6 ± 1 µM. For the same molecule, the “Index F” value in the assay with MMC2 is listed as 9.23(***); in the assay with MMC2 (listed as cisplatin), “approximately 9”. Moreover, in assay [2], the “SI, selectivity index” value is 1.1. Moreover, the “γH2AX foci (DNA damage marker)” value in the assay on NCI-H2228 cells was “detected γH2AX foci”. For the same molecule, in the assay with A549 cells, the “antimigratory effect” value is on record as “reduced the area filling only partially”. Moreover, the externalization of calreticulin entry with CT26 cells is reported as “weakest”.
As to `Cc1cc(Nc2ncc(Cl)c(Nc3ccccc3S(=O)(=O)C(C)C)n2)c(OC(C)C)cc1C1CCN(C(=O)[O][Pt]([Cl])([Cl])[O]C(=O)CCCc2ccccc2)CC1.N.N` [compound 7, ctc-[Pt(NH3)2(ceritinib)(PhB)Cl2]], the IC50 in the assay on A549 was 0.23 ± 0.08 µM; with NCI-H2228, 0.07 ± 0.01 µM; in the assay on U87-MG, 0.26 ± 0.09 µM; in the assay with RD, 0.35 ± 0.03 µM; in the assay with MDA-MB-231, 0.22 ± 0.08 µM; in the assay with IMR-90, 1.1 ± 0.3 µM. Moreover, the IC50 in the assay on MCF10A was determined as 0.9 ± 0.2 µM; with MRC-5, 1.2 ± 0.4 µM; in the assay with hTERT-HPNE, 2 ± 0.3 µM; with CHOK1, 0.46 ± 0.08 µM; in the assay with MMC2 it was 0.1 ± 0.03 µM; in assay [1] it was 0.22 µM. The IC50 in [2] is 1.3 µM; in the assay on A549 spheroids, 0.43 ± 0.07 µM; in the assay on NCI-H2228 spheroids it was 0.11 ± 0.03 µM; in the assay on CT26 cell line, 0.27 ± 0.07 µM. For the same molecule, the “IC50(MIX)/IC50(complex)” value in the assay on A549 (A549, MIX3/3 or MIX7/7) came out at 3.9; in the assay on NCI-H2228 (NCI-H2228, MIX3/3 or MIX7/7), 6.3; with U87-MG (MIX3/3 or MIX7/7), 2.4; in the assay on RD (MIX3/3 or MIX7/7), 1.7; in the assay with MDA-MB-231 (MDA-MB-231, MIX3/3 or MIX7/7), 4.1. Moreover, the “Index F” value in the assay with MMC2 is given as 4.60(**). The “SI, selectivity index” value in [2] is 5.9. Further, the “γH2AX foci (DNA damage marker)” value with NCI-H2228 cells is given as “detected γH2AX foci”. The “antimigratory effect” value in the assay on A549 cells is “antimigratory potential comparable to that of crizotinib and ceritinib”. The externalization of calreticulin entry with CT26 cells was “externalization of calreticulin was apparent”.

The values above are taken from publication PMC12670396, “Crizotinib- or Ceritinib-Conjugated Platinum(IV) Prodrugs As Potent Multiaction Agents Inducing Antiproliferative Effects in 2D and 3D Cancer Cell Models” (Journal of Medicinal Chemistry, 2025).
